Test results: ChEMBL document CHEMBL1153593, “Recent developments in the design and synthesis of hybrid molecules based on aminoquinoline ring and their antiplasmodial evaluation” (Eur J Med Chem, 2009)
In brackets after ≈: the same amount, converted by molar mass.

How the values were obtained:
[1] = tested on: Plasmodium falciparum; assay: Antimalarial activity against Plasmodium falciparum NF54; details: NF-54
[2] = tested on: Plasmodium yoelii; assay: Antimalarial activity as mean survival time against Plasmodium yoelii N67 infected Swiss mice (Mus musculus); format: functional, N-67
[3] = tested on: Plasmodium yoelii; assay: Antimalarial activity as reduced parasitaemia at day 4 against Plasmodium yoelii N67 infected Swiss mice (Mus musculus) compared to chloroquine; format: functional, N-67; design: concentration or dose not given beside the values
[4] = Inhibition of Plasmodium falciparum falcipain-2
[5] = tested on: Plasmodium berghei; assay: Gametocytocidal activity as oocysts per mosquito against Plasmodium berghei; format: functional
[6] = tested on: Plasmodium berghei; assay: Gametocytocidal activity as infected mosquitoes against Plasmodium berghei at 10 uM/kg; format: functional
[7] = Stability assessed as hydrolysis to metabolite in presence of 80% human plasma; format: ADME, cell-free
[8] = biological target: Plasmepsin II (Plasmodium falciparum, UniProt P46925); assay: Inhibition of Plasmodium falciparum plasmepsin-2
[9] = tested on: Plasmodium falciparum; assay: Antimalarial activity against chloroquine-resistant Plasmodium falciparum W2; format: functional, organism-based
[10] = tested on: Plasmodium falciparum; assay: microbe, parasite or virus in culture; details: D10
Description: Antimalarial activity against chloroquine-sensitive Plasmodium falciparum D10

[11] = tested on: Plasmodium falciparum; assay: Antimalarial activity against Plasmodium falciparum FcB1R; details: read-out: ED50 (the source's name)
[12] = tested on: Plasmodium falciparum; assay: Antimalarial activity against chloroquine-resistant Plasmodium falciparum K1; format: functional, organism-based
[13] = tested on: Plasmodium falciparum; assay: Antimalarial activity against Plasmodium falciparum 3D7; format: functional, organism-based
[14] = tested on: Plasmodium falciparum; assay: Antimalarial activity against chloroquine-resistant Plasmodium falciparum Dd2; format: functional, organism-based

Chain of Plasmepsin II (P46925 whole entry): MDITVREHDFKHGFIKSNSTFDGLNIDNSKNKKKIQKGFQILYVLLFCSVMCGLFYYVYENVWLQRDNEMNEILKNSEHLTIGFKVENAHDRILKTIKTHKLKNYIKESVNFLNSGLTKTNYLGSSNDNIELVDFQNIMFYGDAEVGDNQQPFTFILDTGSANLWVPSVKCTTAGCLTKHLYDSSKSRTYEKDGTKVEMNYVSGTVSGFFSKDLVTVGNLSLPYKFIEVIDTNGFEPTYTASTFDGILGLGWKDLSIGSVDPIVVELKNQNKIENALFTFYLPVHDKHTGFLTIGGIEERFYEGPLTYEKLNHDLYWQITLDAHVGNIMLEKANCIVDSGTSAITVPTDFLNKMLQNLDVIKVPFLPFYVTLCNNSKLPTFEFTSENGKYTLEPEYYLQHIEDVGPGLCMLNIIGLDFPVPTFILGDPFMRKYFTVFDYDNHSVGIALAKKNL

Compound: O=C1c2ccccc2SC(c2c(Cl)cccc2Cl)N1CCCNc1ccnc2cc(Cl)ccc12 (stereo not drawn)
- IC50 [1]: 14 nM
- MIC [1]: 0.28 µM (≈ 0.148 µg/mL)
- Survival [2]: 13.8 days
- Activity [3]: 23.5%

Compound: O=C1CCSC(c2ccc(Cl)cc2)N1CCNc1ccnc2cc(Cl)ccc12 (stereo not drawn)
- IC50 [1]: 13 nM
- MIC [1]: 0.26 µM (≈ 0.112 µg/mL)
- Survival [2]: 15.2 days
- Activity [3]: 81%

Compound: O=C1CSC(c2c(Cl)cccc2Cl)N1CCNc1ccnc2cc(Cl)ccc12 (stereo not drawn)
- IC50 [1]: 39 nM
- MIC [1]: 0.55 µM (≈ 0.249 µg/mL)
- Survival [2]: 14.6 days
- Activity [3]: 76.08%

Compound: O=C(NCCNc1ccnc2cc(Cl)ccc12)N/N=C/c1ccc(O)c(CN2CCCC2)c1O
- IC50 [4]: 720 nM

Compound: O=C(NCCNc1ccnc2cc(Cl)ccc12)N/N=C/c1ccc(O)c(CN2CCN(c3ccnc4cc(Cl)ccc34)CC2)c1O
- IC50 [4]: 3160 nM

Compound: NC(=O)N/N=C/c1ccc(O)c(CN2CCN(c3ccnc4cc(Cl)ccc34)CC2)c1O
- IC50 [4]: > 20000 nM

Compound: NC(=S)N/N=C/c1ccc(O)c(CN2CCN(c3ccnc4cc(Cl)ccc34)CC2)c1O
- IC50 [4]: 2250 nM

Compound: CCN(CC)Cc1c(O)ccc(/C=N/NC(=O)NCCNc2ccnc3cc(Cl)ccc23)c1O
- IC50 [4]: 2600 nM

Compound: COc1cc(NC(C)CCCN2C(=O)CNC23CCCCC3)c2ncccc2c1 (stereo not drawn)
- Activity [5]: 7.4
- Activity [6]: 25%
- Stability [7]: Stable

Compound: O=C1c2ccccc2SC(c2ccc(Cl)cc2)N1CCCNc1ccnc2cc(Cl)ccc12 (stereo not drawn)
- IC50 [1]: 138 nM
- MIC [1]: 0.27 µM (≈ 0.134 µg/mL)
- Survival [2]: 10.6 days
- Activity [3]: 40.08%

Compound: CN1CCN(Cc2c(O)ccc(/C=N/NC(=O)NCCNc3ccnc4cc(Cl)ccc34)c2O)CC1
- IC50 [4]: > 20000 nM

Compound: O=C(NCCNc1ccnc2cc(Cl)ccc12)N/N=C/c1ccc(O)c(CN2CCOCC2)c1O
- IC50 [4]: > 20000 nM

Compound: COc1cc(NC(C)CCCN2C(=O)CNC2(C)C)c2ncccc2c1 (stereo not drawn)
- Activity [5]: 6.1
- Activity [6]: 21%

Compound: O=C(NCCNc1ccnc2cc(Cl)ccc12)N/N=C/c1ccc(O)c(CN2CCCCC2)c1O
- IC50 [4]: 630 nM

Compound: CCCCNC(=O)C[C@H](O)[C@H](CC(C)C)NC(=O)[C@@H](NC(=O)Cc1ccc2cc(C(=O)OCCCC(=O)N[C@H](C(=O)N[C@H](CCCCN)C(=O)NCCCC(C)Nc3cc(OC)cc4cccnc34)C(C)C)ccc2c1)[C@H](C)CC (stereo partly drawn)
- IC50 [8]: 9600 nM
- IC50 [9]: 1000 nM
- IC50 [10]: 3300 nM

Compound: CCCCNC(=O)C[C@H](O)[C@H](CC(C)C)NC(=O)[C@@H](NC(=O)Cc1ccc(CC(=O)N[C@H](C(=O)N[C@H](CCCCN)C(=O)NCCCC(C)Nc2cc(OC)cc3cccnc23)C(C)C)cc1)[C@H](C)CC (stereo partly drawn)
- IC50 [8]: 135000 nM
- IC50 [9]: 4200 nM
- IC50 [10]: 5500 nM

Compound: O=C(CN1CCCCC1)Nc1cc(COC(=O)CCC2=CC(=O)c3ccccc3C2=O)cc(Nc2ccnc3ccc(Cl)cc23)c1
- EC50 [11]: 23 nM

Compound: CC(C)(C)C(=O)CN(CCCNc1ccnc2cc(Cl)ccc12)C(=O)c1cnccn1
- IC50 [9]: 1650 nM
- IC50 [12]: 2290 nM
- IC50 [10]: 1380 nM

Compound: COc1cc(NC(C)CCCN2C(=O)[C@@H](Cc3ccccc3)NC23CCCCCC3)c2ncccc2c1 (stereo partly drawn)
- Activity [5]: 78.9
- Activity [6]: 90%
- Stability [7]: Stable

Compound: CC(C)(C)NC(=O)C1(C)CCC(=O)N1CCCCCCNc1ccnc2cc(Cl)ccc12 (stereo not drawn)
- IC50 [9]: 180 nM

Compound: CC(C)(C)C(=O)CN(CCNc1ccnc2cc(Cl)ccc12)C(=O)c1cnccn1
- IC50 [9]: 1190 nM
- IC50 [12]: 1130 nM
- IC50 [10]: 712 nM

Compound: O=C(CN(CCCNc1ccnc2cc(Cl)ccc12)C(=O)c1ccc(O)cc1O)C1CCCCC1
- IC50 [9]: 5940 nM
- IC50 [12]: 3830 nM
- IC50 [10]: 1670 nM

Compound: CCCCN(CCCNc1ccnc2cc(Cl)ccc12)Cc1ccoc1
- IC50 [13]: 50 nM
- IC50 [9]: 70 nM
- IC50 [14]: 45 nM

Compound: O=C(CN(CCNc1ccnc2cc(Cl)ccc12)C(=O)c1cnccn1)C1CCCCC1
- IC50 [9]: > 10000 nM
- IC50 [12]: 1350 nM
- IC50 [10]: 793 nM

Compound: NC(=S)N/N=C1/C(=O)N(CCNc2ccnc3cc(Cl)ccc23)c2ccccc21
- IC50 [4]: 14600 nM
- IC50 [9]: 240 nM
- IC50 [12]: 710 nM
- IC50 [10]: 320 nM

Compound: COc1cc(NC(C)CCCN2C(=O)[C@@H](Cc3ccccc3)NC23CCCCC3)c2ncccc2c1 (stereo partly drawn)
- Activity [5]: 71
- Activity [6]: 83%
- Stability [7]: Stable

Compound: CC1(C(=O)NC2CCCCC2)CCCC(=O)N1CCCCCCNc1ccnc2cc(Cl)ccc12 (stereo not drawn)
- IC50 [4]: 17600 nM
- IC50 [9]: 96 nM

Compound: O=C(CN1CCCCC1)Nc1cc(COC(=O)CCCCC2=CC(=O)c3ccccc3C2=O)cc(Nc2ccnc3ccc(Cl)cc23)c1
- EC50 [11]: 23 nM

Compound: O=C(CN(CCCNc1ccnc2cc(Cl)ccc12)C(=O)c1cnccn1)C1CCCCC1
- IC50 [9]: 877 nM
- IC50 [12]: 521 nM
- IC50 [10]: 242 nM

Compound: O=C(CN(CCCNc1ccnc2cc(Cl)ccc12)C(=O)c1ccncc1)C1CCCCC1
- IC50 [9]: 1570 nM
- IC50 [12]: 73 nM
- IC50 [10]: 237 nM

Compound: CCCCN(CCCNc1ccnc2cc(Cl)ccc12)Cc1ccsc1
- IC50 [13]: 50 nM
- IC50 [9]: 50 nM
- IC50 [14]: 45 nM

Compound: O=C(CN1CCCCC1)Nc1cc(COC(=O)CCCCCC2=CC(=O)c3cccc(O)c3C2=O)cc(Nc2ccnc3ccc(Cl)cc23)c1
- EC50 [11]: 23 nM

Compound: O=C(CN1CCCCC1)Nc1cc(COC(=O)CCCCC2=CC(=O)c3cccc(O)c3C2=O)cc(Nc2ccnc3ccc(Cl)cc23)c1
- EC50 [11]: 23 nM

Compound: COc1cc(NC(C)CCCN2C(=O)[C@@H](CC(C)C)NC2(C)C)c2ncccc2c1 (stereo partly drawn)
- Activity [5]: 13.7
- Activity [6]: 30%
- Stability [7]: Stable

Compound: COc1cc(NC(C)CCCN2C(=O)[C@@H](C(C)C)NC23CCCCCC3)c2ncccc2c1 (stereo partly drawn)
- Activity [5]: 17.7
- Activity [6]: 65%

Compound: CCCCN(CCCNc1ccnc2cc(Cl)ccc12)Cc1cc(Br)ccc1O
- IC50 [13]: 45 nM
- IC50 [9]: 45 nM
- IC50 [14]: 45 nM

Compound: CC(C)(C)C(=O)CN(CCNc1ccnc2cc(Cl)ccc12)C(=O)c1ccncc1
- IC50 [9]: 991 nM
- IC50 [12]: 1100 nM
- IC50 [10]: 1060 nM

Compound: CCCCNC(=O)C[C@H](O)[C@H](CC(C)C)NC(=O)[C@@H](NC(=O)c1ccc(Oc2ccc(C(=O)N[C@H](C(=O)N[C@H](CCCCN)C(=O)NCCCC(C)Nc3cc(OC)cc4cccnc34)C(C)C)cc2)cc1)[C@H](C)CC (stereo partly drawn)
- IC50 [8]: 590 nM
- IC50 [9]: 700 nM
- IC50 [10]: 400 nM

Compound: COc1cc(NC(C)CCCN2C(=O)[C@@H](Cc3ccccc3)NC23CCCC3)c2ncccc2c1 (stereo partly drawn)
- Activity [5]: 51.6
- Activity [6]: 65%

Compound: CC(C)(C)C(=O)CN(CCNc1ccnc2cc(Cl)ccc12)C(=O)c1ccc(O)cc1O
- IC50 [9]: 4140 nM
- IC50 [12]: 5790 nM
- IC50 [10]: 5660 nM

Compound: O=C(CN(CCNc1ccnc2cc(Cl)ccc12)C(=O)c1ccncc1)C1CCCCC1
- IC50 [9]: 619 nM
- IC50 [12]: 531 nM
- IC50 [10]: 540 nM

Compound: COc1cc(NC(C)CCCN2C(=O)[C@@H](Cc3ccccc3)NC2(C)C)c2ncccc2c1 (stereo partly drawn)
- Activity [5]: 61.2
- Activity [6]: 76%
- Stability [7]: Stable

Compound: CC(C)(C)C(=O)CN(CCCNc1ccnc2cc(Cl)ccc12)C(=O)c1ccncc1
- IC50 [9]: 3810 nM
- IC50 [12]: 18200 nM
- IC50 [10]: > 20000 nM

Compound: CCCCNC(=O)C[C@H](O)[C@H](CC(C)C)NC(=O)[C@@H](NC(=O)Cc1ccc2cc(CC(=O)N[C@H](C(=O)N[C@H](CCCCN)C(=O)NCCCC(C)Nc3cc(OC)cc4cccnc34)C(C)C)ccc2c1)[C@H](C)CC (stereo partly drawn)
- IC50 [8]: 1510 nM
- IC50 [9]: 4700 nM
- IC50 [10]: 6200 nM

Compound: COc1cc(NC(C)CCCN2C(=O)[C@@H](C)NC23CCCCC3)c2ncccc2c1 (stereo partly drawn)
- Activity [5]: 0.8
- Activity [6]: 20%

Compound: Cc1ccc2c(c1)/C(=N\NC(N)=S)C(=O)N2CCNc1ccnc2cc(Cl)ccc12
- IC50 [4]: 11600 nM
- IC50 [9]: 51 nM
- IC50 [12]: 100 nM
- IC50 [10]: 79 nM

Compound: COc1cc(NC(C)CCCN2C(=O)[C@@H](C(C)C)NC2(C)C)c2ncccc2c1 (stereo partly drawn)
- Activity [5]: 5
- Activity [6]: 25%
- Stability [7]: Stable

Compound: COc1cc(NC(C)CCCN2C(=O)[C@@H](C(C)C)NC23CCCC3)c2ncccc2c1 (stereo partly drawn)
- Activity [5]: 4.2
- Activity [6]: 35%

Compound: COc1cc(NC(C)CCCN2C(=O)[C@@H](C(C)C)NC23CCCCC3)c2ncccc2c1 (stereo partly drawn)
- Activity [5]: 61.1
- Activity [6]: 85%
- Stability [7]: Stable

Compound: NC(=S)N/N=C1/C(=O)N(CCNc2ccnc3cc(Cl)ccc23)c2ccc(Cl)cc21
- IC50 [12]: 54 nM
- IC50 [10]: 95 nM
